Drawing on patent publication US8613914B2, “Peptidomimetic sulfamide compounds and antiviral uses thereof” (Novartis AG, priority 2009, dated 2013), this text covers IC50 for 15 compounds.

As usually defined, the IC50 is the concentration at which inhibition is half-maximal.

Chain of HCV NS3-4A serine protease (full-length NS3-4A protein) (P26664 1027-1657): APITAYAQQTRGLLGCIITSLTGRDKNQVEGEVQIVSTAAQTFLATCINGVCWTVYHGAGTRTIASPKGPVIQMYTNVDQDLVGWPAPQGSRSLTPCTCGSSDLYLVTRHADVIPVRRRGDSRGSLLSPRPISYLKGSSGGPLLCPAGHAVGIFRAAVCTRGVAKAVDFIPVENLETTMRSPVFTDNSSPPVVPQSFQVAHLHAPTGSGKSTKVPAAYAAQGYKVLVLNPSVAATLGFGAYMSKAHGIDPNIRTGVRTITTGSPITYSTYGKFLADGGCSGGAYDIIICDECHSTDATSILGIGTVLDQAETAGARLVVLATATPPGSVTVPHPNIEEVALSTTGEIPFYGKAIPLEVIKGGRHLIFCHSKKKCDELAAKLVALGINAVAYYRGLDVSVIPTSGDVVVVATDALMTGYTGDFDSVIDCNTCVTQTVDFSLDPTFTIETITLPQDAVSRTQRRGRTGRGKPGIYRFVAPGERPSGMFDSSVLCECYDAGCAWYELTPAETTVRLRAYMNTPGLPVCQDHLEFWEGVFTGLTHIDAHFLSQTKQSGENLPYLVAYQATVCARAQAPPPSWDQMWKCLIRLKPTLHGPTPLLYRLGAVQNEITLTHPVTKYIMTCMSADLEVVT
Chain of HCV NS3-4A serine protease (full-length NS3-4A protein) (P26664 1658-1711 partner): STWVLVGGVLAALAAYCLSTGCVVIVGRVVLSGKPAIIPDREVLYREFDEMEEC

This test has as its target HCV NS3-4A serine protease (full-length NS3-4A protein) (Hepatitis C virus genotype 1a (isolate 1) (HCV), UniProt P26664). As to the kind of experiment: HCV NS3-4A protease assay. Type of test: biochemical, HCV genotype 1a. The note with it: strain HCV-1, fluorogenic peptide substrate, read-out: Protease assay Ex. 12 IC50. The procedure: The inhibitory activity of certain compounds of Table A against HCV NS3-4A serine protease is determined in a homogenous assay using the full-length NS3-4A protein (genotype 1a, strain HCV-1) and a commercially available internally-quenched fluorogenic peptide substrate as described by Taliani, M., et al. 1996 Anal. Biochem. 240:60-67, which is incorporated by reference in its entirety.
As to `CC[C@@H]1C[C@]1(NC(=O)[C@@H]1C[C@@]2(CN1C(=O)[C@@H](NC(=O)[C@@H](NC(=O)[C@@H]1CCCN1C(C)C)C1CCCCC1)C(C)(C)C)C(C)(C)C21CCC1)C(=O)NS(=O)(=O)N(CC)CC` [Compound 117, (5R,8S)-7-[(2S)-2-{[(2S)-2-cyclohexyl-2-({[(2S)-1-isopropylpyrrolidin-2-yl]carbonyl}amino)acetyl]amino}-3,3-dimethylbutanoyl]-N-[(1R,2R)-1-{[(diethylamino)sulfonyl]carbamoyl}-2-ethylcyclopropyl]-10,10-dimethyl-7-azadispiro[3.0.4.1]decane-8-carboxamide], the IC50 was 0.0055 µM.

Turning to `C=C[C@@H]1C[C@]1(NC(=O)[C@@H]1C[C@@]2(CN1C(=O)[C@@H](NC(=O)[C@@H](NC(=O)[C@@H]1CCCCN1C(C)C)C1CCCCC1)C1CCCCC1)C(C)(C)C21CCC1)C(=O)NS(=O)(=O)N1CCCC1` [Compound 35, (5R,8S)-7-[(2S)-2-cyclohexyl-2-{[(2S)-2-cyclohexyl-2-({[(2S)-1-isopropylpiperidin-2-yl]carbonyl}amino)acetyl]amino}acetyl]-10,10-dimethyl-N-{(1R,2S)-1-[(pyrrolidin-1-ylsulfonyl)carbamoyl]-2-vinylcyclopropyl}-7-azadispiro[3.0.4.1]decane-8-carboxamide], the IC50 came out at 0.003 µM.

Regarding `C=C[C@@H]1C[C@]1(NC(=O)[C@@H]1C[C@@]2(CN1C(=O)[C@@H](NC(=O)[C@@H](NC(=O)c1cc(CC)nn1C)C1CCCCC1)C(C)(C)C)C(C)(C)C21CCC1)C(=O)NS(=O)(=O)N1CCCC1` [Compound 185, (5R,8S)-7-{(2S)-2-[(cyclohexyl{[(3-ethyl-1-methyl-1H-pyrazol-5-yl)carbonyl]amino}acetyl)amino]-3,3-dimethylbutanoyl}-10,10-dimethyl-N-{(1R,2S)-1-[(pyrrolidin-1-ylsulfonyl)carbamoyl]-2-vinylcyclopropyl}-7-azadispiro[3.0.4.1]decane-8-carboxamide], the IC50 came out at 0.04 µM.

`C=C[C@@H]1C[C@]1(NC(=O)[C@@H]1C[C@@]2(CN1C(=O)[C@@H](NC(=O)[C@@H](NC(=O)c1cnccn1)C1CCCCC1)C(C)(C)C)C(C)(C)C21CCC1)C(=O)NS(=O)(=O)N(CC)CC` [Compound 173, (5R,8S)-7-[(2S)-2-({(2S)-2-cyclohexyl-2-[(pyrazin-2-ylcarbonyl)amino]acetyl}amino)-3,3-dimethylbutanoyl]-N-[(1R,2S)-1-{[(diethylamino)sulfonyl]carbamoyl}-2-vinylcyclopropyl]-10,10-dimethyl-7-azadispiro[3.0.4.1]decane-8-carboxamide]: the concentration for half-maximal inhibition (IC50) came to 0.003 µM.

Consider `C=C[C@@H]1C[C@]1(NC(=O)[C@@H]1C[C@@]2(CN1C(=O)[C@@H](NC(=O)[C@@H](NC(=O)c1cnccn1)C1CCCCC1)C(C)(C)C)C(C)(C)C21CCC1)C(=O)NS(=O)(=O)N(C)CC` [Compound 167, (5R,8S)-7-[(2S)-2-({(2S)-2-cyclohexyl-2-[(pyrazin-2-ylcarbonyl)amino]acetyl}amino)-3,3-dimethylbutanoyl]-N-[(1R,2S)-1-({[ethyl(methyl)amino]sulfonyl}carbamoyl)-2-vinylcyclopropyl]-10,10-dimethyl-7-azadispiro[3.0.4.1]decane-8-carboxamide], for which the IC50 is 0.0006 µM.

On to `C=C[C@@H]1C[C@]1(NC(=O)[C@@H]1C[C@@]2(CN1C(=O)[C@@H](NC(=O)[C@@H](NC(=O)c1cnccn1)C1CCCCC1)C1CCOCC1)C(C)(C)C21CCC1)C(=O)NS(=O)(=O)N1CCCC1` [Compound 42, (5R,8S)-7-[(2S)-2-({(2S)-2-cyclohexyl-2-[(pyrazin-2-ylcarbonyl)amino]acetyl}amino)-2-(tetrahydro-2H-pyran-4-yl)acetyl]-10,10-dimethyl-N-{(1R,2S)-1-[(pyrrolidin-1-ylsulfonyl)carbamoyl]-2-vinylcyclopropyl}-7-azadispiro[3.0.4.1]decane-8-carboxamide], for which the IC50 turned out to be 0.04 µM.

For the compound `C=CC1CC1(NC(=O)[C@@H]1C[C@@]2(CN1C(=O)[C@@H](NC(=O)[C@@H](NC(=O)C1CCCCN1C(C)C)C(C)(C)C)C(C)(C)C)C(C)(C)C21CCC1)C(=O)NS(=O)(=O)N1CCC[C@H]1CO` (stereo partly drawn) [Compound 163, (5R,8S)-N-[1-({[(2S)-2-(hydroxymethyl)pyrrolidin-1-yl]sulfonyl}carbamoyl)-2-vinylcyclopropyl]-7-[(2S)-2-{[(2S)-2-{[(1-isopropylpiperidin-2-yl)carbonyl]amino}-3,3-dimethylbutanoyl]amino}-3,3-dimethylbutanoyl]-10,10-dimethyl-7-azadispiro[3.0.4.1]decane-8-carboxamide], the IC50 worked out at 1.5 µM.

Regarding `C=C[C@@H]1C[C@]1(NC(=O)[C@@H]1C[C@@]2(CN1C(=O)[C@@H](NC(=O)[C@@H](NC(=O)[C@@H]1CCCCN1C(C)C)C1CCCCC1)C(C)(C)C)C(C)(C)C21CCC1)C(=O)NS(=O)(=O)N1CCCC1` [Compound 13, (5R,8S)-7-[(2S)-2-{[(2S)-2-cyclohexyl-2-({[(2S)-1-isopropylpiperidin-2-yl]carbonyl}amino)acetyl]amino}-3,3-dimethylbutanoyl]-10,10-dimethyl-N-{(1R,2S)-1-[(pyrrolidin-1-ylsulfonyl)carbamoyl]-2-vinylcyclopropyl}-7-azadispiro[3.0.4.1]decane-8-carboxamide], the IC50 turned out to be 0.003 µM.

On to `C=C[C@@H]1C[C@]1(NC(=O)[C@@H]1C[C@@]2(CN1C(=O)[C@@H](NC(=O)[C@@H](NC(=O)[C@H]1CCCCN1C(C)C)C1CCCCC1)C(C)(C)C)C(C)(C)C21CCC1)C(=O)NS(=O)(=O)N1CCCCC1` [Compound 115, (5R,8S)-7-[(2S)-2-{[(2S)-2-cyclohexyl-2-({[(2R)-1-isopropylpiperidin-2-yl]carbonyl}amino)acetyl]amino}-3,3-dimethylbutanoyl]-10,10-dimethyl-N-{(1R,2S)-1-[(piperidin-1-ylsulfonyl)carbamoyl]-2-vinylcyclopropyl}-7-azadispiro[3.0.4.1]decane-8-carboxamide], for which the IC50 is 0.0045 µM.

Regarding `C=C[C@@H]1C[C@]1(NC(=O)[C@@H]1C[C@@]2(CN1C(=O)[C@@H](NC(=O)[C@@H](NC(=O)[C@@H]1CCCN1CC(F)(F)F)C1CCCCC1)C1CCOCC1)C(C)(C)C21CCC1)C(=O)NS(=O)(=O)N1CCCC1` [Compound 71, (5R,8S)-7-[(2S)-2-{[(2S)-2-cyclohexyl-2-({[(2S)-1-(2,2,2-trifluoroethyl)pyrrolidin-2-yl]carbonyl}amino)acetyl]amino}-2-(tetrahydro-2H-pyran-4-yl)acetyl]-10,10-dimethyl-N-{(1R,2S)-1-[(pyrrolidin-1-ylsulfonyl)carbamoyl]-2-vinylcyclopropyl}-7-azadispiro[3.0.4.1]decane-8-carboxamide], the IC50 came to 0.04 µM.

For the compound `C=C[C@@H]1C[C@]1(NC(=O)[C@@H]1C[C@@]2(CN1C(=O)[C@@H](NC(=O)[C@@H](NC(=O)[C@@H]1CCCCN1C(C)C)C1CCCCC1)C1CCOCC1)C(C)(C)C21CCC1)C(=O)NS(=O)(=O)N(CC)CC` [Compound 84, (5R,8S)-7-[(2S)-2-{[(2S)-2-cyclohexyl-2-({[(2S)-1-isopropylpiperidin-2-yl]carbonyl}amino)acetyl]amino}-2-(tetrahydro-2H-pyran-4-yl)acetyl]-N-[(1R,2S)-1-{[(diethylamino)sulfonyl]carbamoyl}-2-vinylcyclopropyl]-10,10-dimethyl-7-azadispiro[3.0.4.1]decane-8-carboxamide], the IC50 is 0.006 µM.

For the compound `C=C[C@@H]1C[C@]1(NC(=O)[C@@H]1C[C@@]2(CN1C(=O)[C@@H](NC(=O)[C@@H](NC(=O)[C@@H]1CCCCN1CCF)C(C)(C)C)C(C)(C)C)C(C)(C)C21CCC1)C(=O)NS(=O)(=O)N1CCCC1` [Compound 20, (5R,8S)-7-[(2S)-2-{[(2S)-2-({[(2S)-1-(2-fluoroethyl)piperidin-2-yl]carbonyl}amino)-3,3-dimethylbutanoyl]amino}-3,3-dimethylbutanoyl]-10,10-dimethyl-N-{(1R,2S)-1-[(pyrrolidin-1-ylsulfonyl)carbamoyl]-2-vinylcyclopropyl}-7-azadispiro[3.0.4.1]decane-8-carboxamide], the IC50 is 0.07 µM.

As to `C=C[C@@H]1C[C@]1(NC(=O)[C@@H]1C[C@@]2(CN1C(=O)[C@@H](NC(=O)[C@@H](NC(=O)c1cnc(C)cn1)C1CCCCC1)C(C)(C)C)C(C)(C)C21CCC1)C(=O)NS(=O)(=O)N1CCCC1` [Compound 199, (5R,8S)-7-{(2S)-2-[(cyclohexyl{[(5-methylpyrazin-2-yl)carbonyl]amino}acetyl)amino]-3,3-dimethylbutanoyl}-10,10-dimethyl-N-{(1R,2S)-1-[(pyrrolidin-1-ylsulfonyl)carbamoyl]-2-vinylcyclopropyl}-7-azadispiro[3.0.4.1]decane-8-carboxamide], the half-inhibitory concentration (IC50) came out at 0.014 µM.

For `C=C[C@@H]1C[C@]1(NC(=O)[C@@H]1C[C@@]2(CN1C(=O)[C@@H](NC(=O)[C@@H](NC(=O)c1cnccn1)C1CCOCC1)C(C)(C)C)C(C)(C)C21CCC1)C(=O)NS(=O)(=O)N1CCCC1` [Compound 43, (5R,8S)-7-[(2S)-3,3-dimethyl-2-{[(2S)-2-[(pyrazin-2-ylcarbonyl)amino]-2-(tetrahydro-2H-pyran-4-yl)acetyl]amino}butanoyl]-10,10-dimethyl-N-{(1R,2S)-1-[(pyrrolidin-1-ylsulfonyl)carbamoyl]-2-vinylcyclopropyl}-7-azadispiro[3.0.4.1]decane-8-carboxamide], the IC50 was found to be 0.06 µM.

As for `C=C[C@@H]1C[C@]1(NC(=O)[C@@H]1C[C@@]2(CN1C(=O)[C@@H](NC(=O)[C@@H](NC(=O)[C@@H]1CCCCN1C(C)C)C1CCCCC1)C(C)(C)C)C(C)(C)C21CCC1)C(=O)NS(=O)(=O)N(CC)CCC` [Compound 106, (5R,8S)-7-[(2S)-2-{[(2S)-2-cyclohexyl-2-({[(2S)-1-isopropylpiperidin-2-yl]carbonyl}amino)acetyl]amino}-3,3-dimethylbutanoyl]-N-[(1R,2S)-1-({[ethyl(propyl)amino]sulfonyl}carbamoyl)-2-vinylcyclopropyl]-10,10-dimethyl-7-azadispiro[3.0.4.1]decane-8-carboxamide], the IC50 is 0.01 µM.
